Holding throughout (assay type): cell-based
Assay [1] concerns Aspergillus niger (DSM 1988). As to the kind of experiment: Sporulation of Aspergillus niger on wort agar plates with active component in the agar (Example 1). Particulars: control series. The method, then: Effect of Patchouli Oil on the Sporulation of Aspergillus niger
Contamination of the surface of wort agar plates with 100 μl of a germ suspension (10^3 CFU/ml) of Aspergillus niger (DSM 1988). Various quantities of active component (dissolved in ethanol, for final concentrations see Table 1) were added to the agar plates beforehand. The plates were incubated for 3 days at 25° C. Sporulation was visually evaluated and the sporulation rate in [%] was determined.
Active component: patchouli oil obtained by steam distillation (mixture of patchouli oil from Kaders, Sensient, Polarome and Nitsche)

Assay [2] has as its system Aspergillus niger, DSM 1988. As to the kind of experiment: Sporulation of Aspergillus niger on the surface of an acetate silicone jointing compound (Example 3). Particulars: for Sporulation [%]: control series. The method, then:
Effect on Patchouli Oil on the Sporulation of Aspergillus niger on the Surface of an Acetate Jointing Compound
Commercially available, but preservative-free, one-component silicone jointing compounds curing at room temperature (acetate system, cured 2.2×2.2×0.3 cm pieces of film) were disinfected with 70% EtOH (ethanol) and placed for 24 h in active component solutions with various concentrations. The test specimens were then re-washed twice with EtOH, rinsed with distilled water (sterile) and dried for 24 h. The test specimens were weighed before and after this treatment and the quantity of active component in the test specimens was thus determined together with the concentration of the active component solution. The test specimens were then placed on wort agar plates and thinly coated with agar in which fungal spores had been incorporated (10^5 CFU/ml Aspergillus niger, DSM 1988). The plates were incubated for 3 days at 25° C. Sporulation was visually evaluated from the test specimens and the sporulation rate in [%] was determined.

Assay [3] deals with Aspergillus niger (DSM 1988). As to the kind of experiment: Sporulation of Aspergillus niger on a filter surface after 2 applications (Example 4). As to conditions: for Sporulation [%]: 3 days at 25° C. How it is done:
Effect of Patchouli Oil on the Sporulation of Aspergillus niger on a Filter Surface after 2 Applications
Filter papers (2×2 cm) were disinfected and treated twice with a 1 hour interval with 50 μl of active-component solutions (in ethanol) differing in concentration. The test specimens were then dried. The test specimens were then placed on wort agar plates and the surface of the wort agar plates was contaminated with 100 μl of a germ suspension (10^3 CFU/ml) of Aspergillus niger (DSM 1988). The plates were incubated for 3 days at 25° C. Sporulation was visually evaluated and the sporulation rate in [%] was determined. […] Sporulation was inhibited by increasing concentrations of eugenol and was 95% suppressed at 90 μm.

In assay [4] the test system is Aspergillus niger (DSM 1988). As to the kind of experiment: Sporulation of Aspergillus niger on wort agar plates, patchouli alcohol (Example 2). How it is done:
Effect of Patchouli Alcohol on the Sporulation of Aspergillus niger
Contamination of the surface of wort agar plates with 100 μl of a germ suspension (10^3 CFU/ml) of Aspergillus niger (DSM 1988). Various quantities of active component (solutions in ethanol, for final concentrations see Table 2) were added to the agar plates beforehand. The plates were incubated for 5 days at 25° C. Sporulation was visually evaluated and the sporulation rate in [%] was determined. […] Sporulation was inhibited with increasing concentrations and was 95% suppressed at 450 μm.

On to `CC(C)=CCCC(C)=CCCC(C)=CCO` [farnesol], for which the “Sporulation [%]” value in assay [1] (concentration 25 μm in wort agar) was 90%; in assay [1] (concentration 62.5 μm in wort agar), 75%; in assay [1] (concentration 125 μm in wort agar), 50%; in assay [1] (concentration 250 μm in wort agar) it was 10%; in assay [1] (concentration 500 μm in wort agar), 0%; in assay [2] (0.4 μm/g jointing compound) it was 100%. Besides, the “Sporulation [%]” value in assay [2] (1.1 μm/g jointing compound) was 100%; in assay [2] (17 μm/g jointing compound), 30%; in assay [3] (solution concentration 0.5 μm, filter paper treated twice with 50 μl) it was 100%; in assay [3] (solution concentration 5 μm, filter paper treated twice), 100%; in assay [3] (solution concentration 25 μm, filter paper treated twice), 100%; in assay [3] (solution concentration 35 μm, filter paper treated twice), 60%. Besides, the “Sporulation [%]” value is given as 80% in assay [3] (solution concentration 50 μm, filter paper treated twice); 50% in assay [3] (solution concentration 70 μm, filter paper treated twice); 40% in assay [3] (solution concentration 90 μm, filter paper treated twice). The “Inhibition of sporulation compared with identical concentrations of patchouli oil” value was “inhibited, but to a far lesser extent” in assay [2] (parallel test series on jointing compound) and “inhibited, but to a lesser extent” in assay [3] (second, parallel test series on filter paper).

Consider `C=CCc1ccc(O)c(OC)c1` [eugenol], for which the “Suppression of sporulation” value is “completely suppressed” in assay [2] (at 9 μm/g jointing compound) and 95% in assay [3] (at 90 μm).

Regarding `C[C@H]1CC[C@@]2(O)C(C)(C)[C@@H]3CC[C@@]2(C)[C@H]1C3` [patchouli alcohol, Patchouli alcohol], the “Inhibition of growth of the test strain” value in assay [4] (all concentrations used (up to 450 μm)) is on record as “None of the active component concentrations used inhibited the growth”. The “Suppression of sporulation” value in assay [4] (at 450 μm, 5 days at 25° C.) is on record as 95%. Further, the “Sporulation [%]” value in assay [4] (concentration 225 μm in wort agar, 5 days at 25° C.) came out at 95%; in assay [4] (concentration 450 μm in wort agar, 5 days at 25° C.) it was 5%.

(Values after patent US20060134239A1, “Agents against microorganisms containing patchouli oil, patchouli alcohol and/or the derivatives thereof” (priority 2003, published 2006).)
